Results: patent US20100212049A1, “Compositions and Methods of Use of Response Regulators” (Pioneer Hi-Bred International, Inc., priority 2005, published 2010)

Tests used:
Ckx1 transcripts [1] = test: Time-course of Ckx1 transcript induction by BA in maize leaf discs (Northern blot); assay type: cell-based, maize (inbred B73); details: 10 μM BA, after 6 hours, 25° C.
Protocol: (§1) Two experiments were performed: one was an initial experiment to determine the time course for BA induction of Ckx1 transcripts in leaf discs, while the second experiment used the time-course information to optimize tissue harvest for the actual Lynx study. For the time-course experiment, leaf discs (5 mm in diameter) were collected from fully expanded leaves of 8-week old maize plants (inbred B73) and were incubated in petri dishes containing water or water plus 10 μM BA for different time periods at 25° C. For the Lynx experiment ˜300 leaf-discs were punched from ear leaves collected from 5 different maize B73 plants at flowering. Half of the discs were floated in a large petri dish on a solution containing 10 μM BA; the other half were floated on distilled water. Discs were incubated for 6 h at 25° C. in the light, blotted-dried, frozen in liquid nitrogen, and then submitted for Lynx analysis.
Time-course experiment: This perfunctory experiment was designed to learn the kinetics of Ckx1 transcript accumulation in response to BA. Ckx1 transcript levels were induced […] after 6 hours (FIG. 1).

Ckx1 transcripts [2] = test: Lynx expression experiment, leaf discs floated on BA vs water: Ckx1; assay type: cell-based, maize B73; details: 10 μM BA, 6 h
Protocol: (§2) A Lynx experiment was performed to identify genes in the cytokinin signaling and metabolism pathway, as well as the carbohydrate pathway, whose expression is modulated in response to elevated cytokinin levels. One goal of this experiment was to identify response regulators that could be involved in the cytokinin-signaling pathway and could potentially act as Ckx1 transcriptional regulators.
as §1, with “Half of the discs were floated in a large petri dish on a solution containing 10 μM BA; the other half were floated on distilled water. Discs were incubated for 6 h at 25° C. in the light, blotted-dried, frozen in liquid nitrogen, and then submitted for Lynx analysis.” left out
(§3) Nevertheless, differences in levels of expression of multiple genes were detected and these are presented as genes relevant to cytokinin response, isoprenoid (or terpenoid) biosynthesis, and cell division (Table 2).
A ˜30-fold increase in Ckx1 transcripts was measured after 6 h of BA application (Table 2). […]

[3] = test system: Zm Response regulator 5 (ZmRR5); test: Lynx expression experiment, leaf discs floated on BA vs water: ZmRR5; assay type: cell-based, maize B73; details: 6 h
Protocol: as §2, §1, §3
(§4) A ˜30-fold increase in Ckx1 transcripts was measured after 6 h of BA application (Table 2). […] We also identified two new response regulators whose expression is induced by BA, ZmRRS and ZmRR6 (Table 2).

[4] = test system: Zm response regulator 6 (ZmRR6); test: Lynx expression experiment, leaf discs floated on BA vs water: ZmRR6; assay type: cell-based, maize B73; details: 6 h
Protocol: as §2, §1, §3, §4

Ckx1 = details: maize leaf discs incubated with BA, compared to untreated controls; cited from earlier work

## c1ccc(CNc2ncnc3nc[nH]c23)cc1 [BA, benzyladenine]
Ckx1 transcripts [1]
  Ckx1 transcript levels induced: ~15 fold
Ckx1 transcripts [2]
  increase in Ckx1 transcripts: ~30 fold
[3]; 10 μM BA vs water
  Up/down regulation: up
[3]; 10 μM BA vs water, ppm ratio
  Ratio BA/Ctrl: 8.50
[3]; 10 μM BA, Lynx
  Cldba (treated sample) expression: 395 ppm
[4]; 10 μM BA vs water
  Up/down regulation: up
[4]; 10 μM BA vs water, ppm ratio
  Ratio BA/Ctrl: 8.75
[4]; 10 μM BA, Lynx
  Cldba (treated sample) expression: 70 ppm
Ckx1
  Ckx1 induced: ~60 fold
